Data set [1] addresses T1, Cytochrome P450 2D6 (Homo sapiens, UniProt P10635). Nature of the data set: Inhibition of CYP2D6. The format is ADME.
A short description of a further data set: in vitro. The note with it: human, liver microsomes.
Data set [2] in a line: Oral bioavailability in Sprague-Dawley rat at 10 mg/kg. The class given is ADME, organism-based. Particulars: in vivo; call rule not given here.
Data set [3] deals with Plasmodium berghei. Description: Antimalarial activity against Plasmodium berghei infected in NMRI mice (Mus musculus) assessed as survival time at 3 mg/kg, perorally administered for 3 days post infection. The format is functional. Particulars: route oral.
The target in data set [4] is T2, Cytochrome P450 3A4 (Homo sapiens, UniProt P08684). Description: Inhibition of CYP3A4. The format is ADME.
For data set [5], the target named is T3, Cytochrome P450 2C9 (Homo sapiens, UniProt P11712). Nature of the data set: Inhibition of CYP2C9. The class given is ADME.
For data set [6], the system named is Rattus norvegicus. Nature of the data set: (§1) Half life in Sprague-Dawley rat at 10 mg/kg, iv. The format is ADME, organism-based. Also on record: dose 10 mg/kg, route intravenous. The note with it: in vivo.
Data set [7] deals with Plasmodium berghei. Description: Antimalarial activity against Plasmodium berghei infected in NMRI mice (Mus musculus) assessed as reduction in parasitaemia at 3 mg/kg, perorally administered for 3 days post infection. The format is functional. Also noted: scale not given: the % may be the effect or the level left. The note with it: route oral.
A short description of data set [8]: Lipophilicity, log D at pH 7.4. The class given is physicochemical. The note with it: buffer.
In another data set the target is Cytochrome P450 2C19 (Homo sapiens, UniProt P33261). Nature of the data set: Inhibition of CYP2C19. The class given is ADME.
For data set [9], the system named is Plasmodium berghei. Description: Antimalarial activity against Plasmodium berghei infected in NMRI mice (Mus musculus) assessed as cure rat at 3 mg/kg, perorally administered for 3 days post infection measured after 30 days. The class given is functional. The note with it: route oral.
Data set [10] concerns Rattus norvegicus. Nature of the data set: (§2) Volume of distribution in Sprague-Dawley rat at 10 mg/kg, iv. The format is ADME, organism-based. Also noted: dose 10 mg/kg, route intravenous. The note with it: in vivo.
Data set [11] has as its system Plasmodium berghei. Description: Antimalarial activity against Plasmodium berghei infected in NMRI mice (Mus musculus) assessed as reduction in parasitaemia at 10 mg/kg, perorally administered 1 day post infection. The class given is functional. Also noted: scale not given: the % may be the effect or the level left. Particulars: route oral.
Data set [12] relates to Plasmodium falciparum. Nature of the data set: Antimalarial activity against chloroquine-sensitive Plasmodium falciparum NF54. The format is functional, organism-based.
In data set [13] the test system is Plasmodium falciparum. Description: Antimalarial activity against chloroquine-resistant Plasmodium falciparum K1. The class given is functional, organism-based.
A short description of data set [14]: Blood clearance in Sprague-Dawley rat at 10 mg/kg, iv. The class given is ADME, organism-based. Also on record: dose 10 mg/kg, route intravenous. The note with it: whole blood.
Data set [15] can be described thus: as §1. The class given is ADME, organism-based. Also on record: dose 10 mg/kg, route intravenous. Particulars: Sprague-Dawley, in vivo.
The nature of data set [16]: as §2. Particulars: Sprague-Dawley, in vivo. The class given is ADME, organism-based. Also noted: dose 10 mg/kg, route intravenous.
In data set [17] the target is T2, Cytochrome P450 3A4. Nature of the data set: Inhibition of CYP3A4 up to 50 uM. The format is ADME.
Data set [18] can be described thus: Plasma concentration in rat at 100 mg/kg, po after 5 days. The class given is ADME, organism-based. Also on record: dose 100 mg/kg, route oral.
For data set [19], the target named is T3, Cytochrome P450 2C9. Nature of the data set: Inhibition of CYP2C9 up to 50 uM. The format is ADME.
Data set [20] concerns the target T1, Cytochrome P450 2D6. Nature of the data set: Inhibition of CYP2D6 up to 50 uM. The format is ADME.
In data set [21] the test system is Rattus norvegicus. Nature of the data set: Plasma concentration in rat at 300 mg/kg, po after 5 days. The format is ADME, organism-based. Also noted: dose 300 mg/kg, route oral. The note with it: in vivo, 120 h.

We go through five compounds from ChEMBL document CHEMBL1153189, “The comparative antimalarial properties of weak base and neutral synthetic ozonides” (Bioorg Med Chem Lett, 2010).

Bounds are passed on as bounds.

T1 sequence (P10635 whole entry): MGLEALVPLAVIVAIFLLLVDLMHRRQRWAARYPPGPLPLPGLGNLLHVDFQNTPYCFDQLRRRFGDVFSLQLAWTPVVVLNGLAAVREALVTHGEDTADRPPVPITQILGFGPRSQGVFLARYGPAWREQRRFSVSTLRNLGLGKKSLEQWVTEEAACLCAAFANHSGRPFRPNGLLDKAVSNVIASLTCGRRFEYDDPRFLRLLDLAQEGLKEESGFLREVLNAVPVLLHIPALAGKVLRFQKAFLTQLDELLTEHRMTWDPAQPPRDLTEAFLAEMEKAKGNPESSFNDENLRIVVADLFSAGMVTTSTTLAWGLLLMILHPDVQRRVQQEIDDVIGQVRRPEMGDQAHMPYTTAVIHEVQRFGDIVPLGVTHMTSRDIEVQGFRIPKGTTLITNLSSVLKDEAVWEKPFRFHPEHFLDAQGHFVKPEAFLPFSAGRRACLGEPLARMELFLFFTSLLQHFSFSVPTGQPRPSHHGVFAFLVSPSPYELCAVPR
T2 sequence (P08684 whole entry): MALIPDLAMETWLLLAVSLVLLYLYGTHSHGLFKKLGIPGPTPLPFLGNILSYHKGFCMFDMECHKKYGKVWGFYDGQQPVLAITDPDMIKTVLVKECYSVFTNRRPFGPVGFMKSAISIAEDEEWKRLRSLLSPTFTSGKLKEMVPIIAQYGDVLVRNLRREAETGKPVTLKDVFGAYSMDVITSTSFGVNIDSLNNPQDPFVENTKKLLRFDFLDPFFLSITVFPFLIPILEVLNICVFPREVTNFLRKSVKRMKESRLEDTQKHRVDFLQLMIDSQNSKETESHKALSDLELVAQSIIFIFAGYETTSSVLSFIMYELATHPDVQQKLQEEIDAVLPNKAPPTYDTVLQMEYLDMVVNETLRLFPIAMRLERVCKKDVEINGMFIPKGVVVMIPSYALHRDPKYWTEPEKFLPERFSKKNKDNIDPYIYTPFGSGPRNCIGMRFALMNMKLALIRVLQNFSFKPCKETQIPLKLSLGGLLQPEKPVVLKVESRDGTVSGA
T3 sequence (P11712 whole entry): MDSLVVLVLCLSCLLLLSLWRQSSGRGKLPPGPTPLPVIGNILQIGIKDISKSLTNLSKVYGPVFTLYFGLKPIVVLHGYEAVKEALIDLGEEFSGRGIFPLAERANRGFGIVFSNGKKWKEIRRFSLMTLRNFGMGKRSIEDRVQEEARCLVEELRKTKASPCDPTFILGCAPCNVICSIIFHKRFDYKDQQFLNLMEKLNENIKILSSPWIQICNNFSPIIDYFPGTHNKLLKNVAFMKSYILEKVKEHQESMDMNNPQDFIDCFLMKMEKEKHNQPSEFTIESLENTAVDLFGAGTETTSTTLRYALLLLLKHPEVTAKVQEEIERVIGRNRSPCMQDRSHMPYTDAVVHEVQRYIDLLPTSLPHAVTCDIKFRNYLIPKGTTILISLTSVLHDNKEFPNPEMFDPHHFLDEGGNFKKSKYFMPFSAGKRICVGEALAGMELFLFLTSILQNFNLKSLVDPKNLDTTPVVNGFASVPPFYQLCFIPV
Cytochrome P450 2C19, sequence (P33261 whole entry): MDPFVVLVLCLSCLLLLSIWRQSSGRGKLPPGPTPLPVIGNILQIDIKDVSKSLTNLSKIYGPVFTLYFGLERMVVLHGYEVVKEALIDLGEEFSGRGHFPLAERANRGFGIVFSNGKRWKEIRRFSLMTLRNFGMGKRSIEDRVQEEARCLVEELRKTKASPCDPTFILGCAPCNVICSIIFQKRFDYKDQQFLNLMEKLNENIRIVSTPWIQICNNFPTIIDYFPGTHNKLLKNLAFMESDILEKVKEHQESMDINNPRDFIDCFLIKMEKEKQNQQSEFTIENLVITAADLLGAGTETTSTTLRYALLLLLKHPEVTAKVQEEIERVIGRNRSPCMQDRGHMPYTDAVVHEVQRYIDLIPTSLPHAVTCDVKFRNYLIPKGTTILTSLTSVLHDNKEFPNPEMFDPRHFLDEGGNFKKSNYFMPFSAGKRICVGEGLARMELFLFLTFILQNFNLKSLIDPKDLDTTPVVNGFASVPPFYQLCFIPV
Description for in vitro: Metabolic stability in human liver microsomes assessed as hepatic extraction ratio

As usually defined, the bioavailability is dose-corrected exposure relative to a reference, in per cent. By IC50 is commonly meant the point on the concentration scale where inhibition reaches its midpoint. In general, logD refers to the decadic logarithm of the distribution of all forms, ionised or not, between an organic phase and buffer at a given pH. Broadly, the Vd is the apparent volume that relates the amount in the body to the concentration in plasma or blood. On to `NC[C@H]1CC[C@]2(CC1)OOC1(O2)C2CC3CC(C2)CC1C3` (stereo not given in full), for which the Activity entry on Cytochrome P450 2D6 [1] is listed as “Not Active”; in the data set with Plasmodium berghei [7] it was over 99.9%; in the data set on Plasmodium berghei [9] it was 0%; in the data set with Plasmodium berghei [11], over 99.9%. In addition, the hepatic extraction ratio in “in vitro” was 0.24. The compound also registered a bioavailability in data set [2] of 31%. Besides, the Survival in the data set with Plasmodium berghei [3] is 12.8 days. Besides, the IC50 on Cytochrome P450 3A4 [4] was found to be 9.7 µM; against Cytochrome P450 2C9 [5] it was 17 µM; on Cytochrome P450 2C19, 0.11 µM. Besides, in the data set on Rattus norvegicus [6], the t1/2 is 90 min. Also, the logD in [8] is 2.6. In the data set on Rattus norvegicus [10], the Vd turned out to be 46 L/kg.
Compound `O=C(CN1CCOCC1)NC[C@H]1CC[C@]2(CC1)OO[C@]1(O2)C2CC3CC(C2)CC1C3.O=C(O)/C=C\C(=O)O` gave a logD in data set [8] of 5. Moreover, the IC50 in the data set with Plasmodium falciparum [12] came out at 1.8 ng/mL; in the data set with Plasmodium falciparum [13], 0.88 ng/mL. In addition, the Activity in the data set with Plasmodium berghei [11] was 99%.
Consider `C[C@H]1[C@H](OC(=O)CCC(=O)O)O[C@@H]2O[C@@]3(C)CC[C@H]4[C@H](C)CC[C@@H]1[C@@]24OO3` [ARTESUNATE], for which the Activity in the data set with Plasmodium berghei [7] turned out to be 70%; in the data set with Plasmodium berghei [9] it was 0%; in the data set with Plasmodium berghei [11], 67%. The logD in data set [8] worked out at 3.5.
The clearance is the volume of plasma or blood freed of the substance per unit of time. By half-life is commonly meant how long it takes for the measured level to halve. In data set [14], `C[C@H]1[C@@H](O)O[C@@H]2O[C@@]3(C)CC[C@H]4[C@H](C)CC[C@@H]1[C@@]24OO3` [ARTENIMOL] had a clearance of 72 mL/min/kg. For the same compound, in data set [15], the half-life was 26 min. Besides, in data set [16], the Vd was determined as 3 L/kg.
For the compound `Cc1ccc(S(=O)(=O)O)cc1.N[C@H]1CC[C@H](NC(=O)C(=O)NC[C@H]2CC[C@]3(CC2)OO[C@]2(O3)C3CC4CC(C3)CC2C4)CC1`, the Activity entry at Cytochrome P450 3A4 [17] is on record as “Not Active”; on Cytochrome P450 2C9 [19] it was “Not Active”; with Plasmodium berghei [7], over 99.9%; at Cytochrome P450 2D6 [20] it was “Not Active”; in the data set with Plasmodium berghei [9], 40%; in the data set with Plasmodium berghei [11], 99.9%. In addition, the Survival with Plasmodium berghei [3] came out at 25.2 days. The same compound registered a concentration at 120 h in [18] of 3700 ng/mL. The values for the IC50 in the data set on Plasmodium falciparum [12] and in the data set on Plasmodium falciparum [13] were 1.3 ng/mL and 0.7 ng/mL, respectively. For the same compound, the Cp with Rattus norvegicus [21] was 100 mg/kg.
